This passage reports MIC results from ChEMBL document CHEMBL1131216, “Anhydrolide macrolides. 2. Synthesis and antibacterial activity of 2,3-anhydro-6-O-methyl 11,12-carbazate erythromycin A analogues” (1998).

Holding throughout (assay type): functional
The test system of one assay is Haemophilus influenzae. As to the kind of experiment: In vitro antibacterial activity of DILL strain of Gram negative bacteria Haemophilus influenzae.
Assay [1] relates to Streptococcus pneumoniae. As to the kind of experiment: In vitro antibacterial activity of 5649 strain of Gram positive bacteria Streptococcus pneumoniae.
Assay [2] relates to Streptococcus pneumoniae. As to the kind of experiment: In vitro antibacterial activity of 5979 strain of Gram positive bacteria Streptococcus pneumoniae.
The subject of assay [3] is Streptococcus pneumoniae. As to the kind of experiment: In vitro antibacterial activity of ATCC 6303 strain of Gram positive bacteria Streptococcus pneumoniae.
Assay [4] deals with Streptococcus pyogenes. Put plainly: In vitro antibacterial activity of 930 strain of Gram positive bacteria Streptococcus pyogenes.
Assay [5] relates to Streptococcus pyogenes. Put plainly: In vitro antibacterial activity of EES61 strain of Gram positive bacteria Streptococcus pyogenes.
The test system of assay [6] is Streptococcus pyogenes. As to the kind of experiment: In vitro antibacterial activity of PIU2584 strain of Gram positive bacteria Streptococcus pyogenes.
Assay [7] relates to Staphylococcus aureus. As to the kind of experiment: In vitro antibacterial activity of A-5278 strain of Gram positive bacteria Staphylococcus aureus.
Assay [8] concerns Staphylococcus aureus. Put plainly: In vitro antibacterial activity of 6538P strain of Gram positive bacteria Staphylococcus aureus.
Assay [9] relates to Staphylococcus aureus. As to the kind of experiment: In vitro antibacterial activity of A5177 strain of Gram positive bacteria Staphylococcus aureus.

Converted amounts (≈) assume the structure as drawn.

On to `CC[C@H]1OC(=O)/C(C)=C/[C@H](C)[C@@H](O[C@@H]2O[C@H](C)C[C@H](N(C)C)[C@H]2O)[C@@](C)(OC)C[C@@H](C)C(=O)[C@H](C)[C@H]2N(NCCCc3ccc(N)cc3)C(=O)O[C@]12C`, for which the MIC is 4 µg/mL (≈ 5.37 µM) in the assay with Haemophilus influenzae; 1 µg/mL (≈ 1.34 µM) against Streptococcus pneumoniae [1]; over 128 µg/mL against Streptococcus pneumoniae [2]; 0.03 µg/mL (≈ 0.0403 µM) in the assay with Streptococcus pneumoniae [3]; over 128 µg/mL against Streptococcus pyogenes [4]; 0.03 µg/mL (≈ 0.0403 µM) in the assay on Streptococcus pyogenes [5]. For the same compound, the MIC is 1 µg/mL (≈ 1.34 µM) against Streptococcus pyogenes [6], over 100 µg/mL against Staphylococcus aureus [7] and 0.39 µg/mL (≈ 0.524 µM) in the assay with Staphylococcus aureus [8].

For the compound `CC[C@H]1OC(=O)/C(C)=C/[C@H](C)[C@@H](O[C@@H]2O[C@H](C)C[C@H](N(C)C)[C@H]2O)[C@@](C)(OC)C[C@@H](C)C(=O)[C@H](C)[C@H]2N(NCCCn3nnc4ccccc43)C(=O)O[C@]12C`, the MIC against Haemophilus influenzae was 4 µg/mL (≈ 5.19 µM); in the assay with Streptococcus pneumoniae [1], 1 µg/mL (≈ 1.3 µM); against Streptococcus pneumoniae [2], over 128 µg/mL; in the assay with Streptococcus pneumoniae [3] it was 0.03 µg/mL (≈ 0.0389 µM); in the assay with Staphylococcus aureus [9], 0.1 µg/mL (≈ 0.13 µM); against Streptococcus pyogenes [4], over 128 µg/mL. In addition, the MIC is 0.03 µg/mL (≈ 0.0389 µM) in the assay on Streptococcus pyogenes [5], 1 µg/mL (≈ 1.3 µM) against Streptococcus pyogenes [6], over 100 µg/mL with Staphylococcus aureus [7] and 0.2 µg/mL (≈ 0.259 µM) against Staphylococcus aureus [8].

Regarding `CC[C@H]1OC(=O)/C(C)=C/[C@H](C)[C@@H](O[C@@H]2O[C@H](C)C[C@H](N(C)C)[C@H]2O)[C@@](C)(OC)C[C@@H](C)C(=O)[C@H](C)[C@H]2N(NCc3ccccc3CO)C(=O)O[C@]12C`, the MIC against Haemophilus influenzae was 4 µg/mL (≈ 5.47 µM); in the assay on Streptococcus pneumoniae [1], 1 µg/mL (≈ 1.37 µM); with Streptococcus pneumoniae [2] it was over 128 µg/mL; against Streptococcus pneumoniae [3], 0.03 µg/mL (≈ 0.041 µM); in the assay on Staphylococcus aureus [9], 0.2 µg/mL (≈ 0.273 µM); in the assay with Streptococcus pyogenes [4], over 128 µg/mL. The MIC is 0.03 µg/mL (≈ 0.041 µM) against Streptococcus pyogenes [5], 0.5 µg/mL (≈ 0.683 µM) against Streptococcus pyogenes [6], over 100 µg/mL with Staphylococcus aureus [7] and 0.2 µg/mL (≈ 0.273 µM) against Staphylococcus aureus [8].

As to `CC[C@H]1OC(=O)/C(C)=C/[C@H](C)[C@@H](O[C@@H]2O[C@H](C)C[C@H](N(C)C)[C@H]2O)[C@@](C)(OC)C[C@@H](C)C(=O)[C@H](C)[C@H]2N(NCc3ccc(N)cc3)C(=O)O[C@]12C`, the MIC in the assay on Haemophilus influenzae is 16 µg/mL (≈ 22.3 µM); with Streptococcus pneumoniae [1], 1 µg/mL (≈ 1.39 µM); in the assay with Streptococcus pneumoniae [2] it was over 128 µg/mL; in the assay with Streptococcus pneumoniae [3], 0.25 µg/mL (≈ 0.349 µM); against Staphylococcus aureus [9], 0.78 µg/mL (≈ 1.09 µM); in the assay on Streptococcus pyogenes [4], over 128 µg/mL. Also, the MIC is 0.06 µg/mL (≈ 0.0837 µM) in the assay on Streptococcus pyogenes [5], 1 µg/mL (≈ 1.39 µM) in the assay with Streptococcus pyogenes [6], over 100 µg/mL in the assay with Staphylococcus aureus [7] and 0.78 µg/mL (≈ 1.09 µM) in the assay with Staphylococcus aureus [8].

For `CC[C@H]1OC(=O)/C(C)=C/[C@H](C)[C@@H](O[C@@H]2O[C@H](C)C[C@H](N(C)C)[C@H]2O)[C@@](C)(OC)C[C@@H](C)C(=O)[C@H](C)[C@H]2N(NCc3ccc(Cl)cc3)C(=O)O[C@]12C`, the MIC stood at 16 µg/mL (≈ 21.7 µM) in the assay with Haemophilus influenzae; 1 µg/mL (≈ 1.36 µM) against Streptococcus pneumoniae [1]; 32 µg/mL (≈ 43.5 µM) against Streptococcus pneumoniae [2]; 0.06 µg/mL (≈ 0.0815 µM) against Streptococcus pneumoniae [3]; 0.2 µg/mL (≈ 0.272 µM) in the assay with Staphylococcus aureus [9]; 32 µg/mL (≈ 43.5 µM) with Streptococcus pyogenes [4]. Also, the MIC against Streptococcus pyogenes [5] worked out at 0.03 µg/mL (≈ 0.0407 µM); against Streptococcus pyogenes [6], 1 µg/mL (≈ 1.36 µM); against Staphylococcus aureus [7], 100 µg/mL (≈ 136 µM); in the assay with Staphylococcus aureus [8], 0.2 µg/mL (≈ 0.272 µM).

In the case of `CC[C@H]1OC(=O)/C(C)=C/[C@H](C)[C@@H](O[C@@H]2O[C@H](C)C[C@H](N(C)C)[C@H]2O)[C@@](C)(OC)C[C@@H](C)C(=O)[C@H](C)[C@H]2N(NCCCn3cnc(-c4ccccc4)c3)C(=O)O[C@]12C`, the MIC against Haemophilus influenzae is 8 µg/mL (≈ 10.1 µM); in the assay with Streptococcus pneumoniae [1], 0.5 µg/mL (≈ 0.628 µM); against Streptococcus pneumoniae [2], over 128 µg/mL; against Streptococcus pneumoniae [3], 0.03 µg/mL (≈ 0.0377 µM); in the assay on Streptococcus pyogenes [4] it was 128 µg/mL (≈ 161 µM); in the assay with Streptococcus pyogenes [5] it was 0.03 µg/mL (≈ 0.0377 µM). The MIC against Streptococcus pyogenes [6] is 1 µg/mL (≈ 1.26 µM); against Staphylococcus aureus [7], over 100 µg/mL; with Staphylococcus aureus [8] it was 0.2 µg/mL (≈ 0.251 µM).

Consider `CC[C@H]1OC(=O)/C(C)=C/[C@H](C)[C@@H](O[C@@H]2O[C@H](C)C[C@H](N(C)C)[C@H]2O)[C@@](C)(OC)C[C@@H](C)C(=O)[C@H](C)[C@H]2N(NCc3c(O)ccc4ccccc34)C(=O)O[C@]12C`, for which the MIC is 8 µg/mL (≈ 10.4 µM) in the assay on Haemophilus influenzae; 0.25 µg/mL (≈ 0.326 µM) in the assay on Streptococcus pneumoniae [1]; 32 µg/mL (≈ 41.7 µM) in the assay with Streptococcus pneumoniae [2]; 0.03 µg/mL (≈ 0.0391 µM) with Streptococcus pneumoniae [3]; 32 µg/mL (≈ 41.7 µM) with Streptococcus pyogenes [4]; 0.06 µg/mL (≈ 0.0781 µM) against Streptococcus pyogenes [5]. Moreover, the figures for the MIC in the assay with Streptococcus pyogenes [6], with Staphylococcus aureus [7] and in the assay with Staphylococcus aureus [8] were 0.5 µg/mL (≈ 0.651 µM), 100 µg/mL (≈ 130 µM) and 0.2 µg/mL (≈ 0.26 µM), respectively.

On to `CC[C@H]1OC(=O)/C(C)=C/[C@H](C)[C@@H](O[C@@H]2O[C@H](C)C[C@H](N(C)C)[C@H]2O)[C@@](C)(OC)C[C@@H](C)C(=O)[C@@H](C)[C@H]2N(NCCCc3ccccc3)C(=O)O[C@]12C`, for which the MIC with Haemophilus influenzae was over 128 µg/mL; in the assay with Streptococcus pneumoniae [1] it was 8 µg/mL (≈ 11 µM); in the assay with Streptococcus pneumoniae [2] it was 16 µg/mL (≈ 21.9 µM); with Streptococcus pneumoniae [3] it was 2 µg/mL (≈ 2.74 µM); with Streptococcus pyogenes [4], 8 µg/mL (≈ 11 µM); with Streptococcus pyogenes [5], 2 µg/mL (≈ 2.74 µM). Further, the MIC with Streptococcus pyogenes [6] turned out to be 8 µg/mL (≈ 11 µM); with Staphylococcus aureus [7] it was 25 µg/mL (≈ 34.2 µM); in the assay with Staphylococcus aureus [8], 12.5 µg/mL (≈ 17.1 µM).

Turning to `CC[C@H]1OC(=O)/C(C)=C/[C@H](C)[C@@H](O[C@@H]2O[C@H](C)C[C@H](N(C)C)[C@H]2O)[C@@](C)(OC)C[C@@H](C)C(=O)[C@H](C)[C@H]2N(NCc3ccc(SC)cc3)C(=O)O[C@]12C`, the MIC with Haemophilus influenzae came out at 8 µg/mL (≈ 10.7 µM); against Streptococcus pneumoniae [1], 0.5 µg/mL (≈ 0.668 µM); with Streptococcus pneumoniae [2], 64 µg/mL (≈ 85.6 µM); against Streptococcus pneumoniae [3] it was 0.03 µg/mL (≈ 0.0401 µM); with Streptococcus pyogenes [4], 64 µg/mL (≈ 85.6 µM); in the assay with Streptococcus pyogenes [5], 0.03 µg/mL (≈ 0.0401 µM). For the same compound, the results for the MIC against Streptococcus pyogenes [6], against Staphylococcus aureus [7] and with Staphylococcus aureus [8] were 1 µg/mL (≈ 1.34 µM), over 100 µg/mL and 0.39 µg/mL (≈ 0.521 µM), respectively.

For `CC[C@H]1OC(=O)/C(C)=C/[C@H](C)[C@@H](O[C@@H]2O[C@H](C)C[C@H](N(C)C)[C@H]2O)[C@@](C)(OC)C[C@@H](C)C(=O)[C@H](C)[C@H]2N(NCCCc3cccc(N)c3)C(=O)O[C@]12C`, the MIC in the assay on Haemophilus influenzae was 4 µg/mL (≈ 5.37 µM); with Streptococcus pneumoniae [2], over 128 µg/mL; in the assay on Streptococcus pneumoniae [3] it was 0.03 µg/mL (≈ 0.0403 µM); against Staphylococcus aureus [9], 0.2 µg/mL (≈ 0.268 µM); against Streptococcus pyogenes [4], over 128 µg/mL; against Streptococcus pyogenes [5] it was 0.03 µg/mL (≈ 0.0403 µM). In addition, the MIC in the assay on Streptococcus pyogenes [6] is 1 µg/mL (≈ 1.34 µM); against Staphylococcus aureus [7] it was over 100 µg/mL; in the assay with Staphylococcus aureus [8] it was 0.2 µg/mL (≈ 0.268 µM).

Turning to `CC[C@H]1OC(=O)/C(C)=C/[C@H](C)[C@@H](O[C@@H]2O[C@H](C)C[C@H](N(C)C)[C@H]2O)[C@@](C)(OC)C[C@@H](C)C(=O)[C@H](C)[C@H]2N(NCCCc3ccccc3N)C(=O)O[C@]12C`, the MIC against Haemophilus influenzae was 16 µg/mL (≈ 21.5 µM); in the assay with Streptococcus pneumoniae [2], over 128 µg/mL; in the assay on Streptococcus pneumoniae [3], 0.03 µg/mL (≈ 0.0403 µM); against Staphylococcus aureus [9], 0.39 µg/mL (≈ 0.524 µM); in the assay on Streptococcus pyogenes [4], 128 µg/mL (≈ 172 µM); in the assay with Streptococcus pyogenes [5], 0.06 µg/mL (≈ 0.0805 µM). Besides, the MIC against Streptococcus pyogenes [6] is 1 µg/mL (≈ 1.34 µM); in the assay with Staphylococcus aureus [7], over 100 µg/mL; in the assay with Staphylococcus aureus [8], 0.39 µg/mL (≈ 0.524 µM).

With `CC[C@H]1OC(=O)/C(C)=C/[C@H](C)[C@@H](O[C@@H]2O[C@H](C)C[C@H](N(C)C)[C@H]2O)[C@@](C)(OC)C[C@@H](C)C(=O)[C@H](C)[C@H]2N(NCc3cc([N+](=O)[O-])ccc3O)C(=O)O[C@]12C`, the MIC against Haemophilus influenzae is 4 µg/mL (≈ 5.24 µM); in the assay on Streptococcus pneumoniae [1], 0.25 µg/mL (≈ 0.328 µM); with Streptococcus pneumoniae [2] it was over 128 µg/mL; against Streptococcus pneumoniae [3], 0.03 µg/mL (≈ 0.0393 µM); with Streptococcus pyogenes [4], over 128 µg/mL; in the assay on Streptococcus pyogenes [5], 0.015 µg/mL (≈ 0.0197 µM). Also, the results for the MIC in the assay on Streptococcus pyogenes [6], against Staphylococcus aureus [7] and in the assay with Staphylococcus aureus [8] were 0.25 µg/mL (≈ 0.328 µM), over 100 µg/mL and 0.1 µg/mL (≈ 0.131 µM), respectively.
